According to patent publication US20140065649A1, “TEST SYSTEMS AND METHODS FOR IDENTIFYING AND CHARACTERISING LIPID LOWERING DRUGS” (Sanofi, priority 2011, published 2014):
Entries after “also recorded” stand apart in the source; their conditions may differ.

Key:
[1] = test system: normolipidemic male Syrian hamsters; test: Study 2: safety parameters, body weight, liver weight and liver lipids
Procedure: (§1) Male Syrian hamsters (strain RjHan: AURA in Study 1 and Bio™ F1B in Study 2), weighing between 90 and 100 g, were purchased from Janvier, Germany, and were allowed to acclimatize for a period of 7 days before entering the study.
(§2) The investigation was divided into 2 studies. […] For each study, body weight and food consumption (weight changes in chow) were measured once a week, starting 1 week before dosing. […] In Study 1, samples were taken on Days −6, 1, 7, 14, 21, and 28; in Study 2, samples were taken on Days −7, 0, 3, and 7. Serum was obtained after centrifugation using Serum-Gel® tubes (Sarstedt, Nümbrecht, Germany).
(§3) At the end of each study, animals were sacrificed in a nonfasted state and liver was immediately weighed and shock frozen on dry ice.
(§4) All data are expressed as means±standard error of the mean (SEM) and were tested for normality and variance homogeneity before analysis. […] In Study 1, the vehicle-treated control versus treatment-naive control group was analyzed separately using 2-way ANOVA followed by the Dunnett test. A P value of ≦0.05 was considered statistically significant. Food consumption and safety parameters (AST, ALT, AP, and CK) were descriptively evaluated.

[2] = test system: normolipidemic male Syrian hamsters; test: Study 2: serum lipids, atorvastatin twice daily with and without single s.c. 316P in normolipidemic hamsters; type: in vivo, Mesocricetus auratus
[3] = test system: human HepG2 or Huh7 cells; settings: cited from earlier work
dyslipidemic hamsters = settings: cited from earlier work
[4] = test system: PCSK9-mediated down-regulation of LDL uptake via LDLR in HepG2 cells; settings: cited from earlier work
[5] = Study 1: serum 316P levels by sandwich ELISA; type: in vivo, Mesocricetus auratus; settings: Study 1, 24-hour time point, 1, 3, and 10 mg/kg
[6] = test system: normolipidemic male Syrian hamsters; settings: in vivo, sc
Procedure: as §1, §2, §3, §4

humans = settings: human phase 1 study, interim analysis, single i.v. administration; cited from earlier work
[7] = test system: normolipidemic male Syrian hamsters; test: Study 1: serum lipids after single s.c. injection in normolipidemic hamsters; type: in vivo, Mesocricetus auratus; settings: for decrease in TC: Day 7
[8] = test system: hepatic low density lipoprotein receptor (LDLR) protein; test: Study 2: hepatic LDLR levels by Western blot; type: in vivo, Mesocricetus auratus; settings: Study 2, Western blot; 316P 10 mg/kg, atorvastatin 2×20 mg/kg
PCSK9 = settings: in hamsters; cited from earlier work
hPCSK9 = hPCSK9 (Homo sapiens, UniProt Q8NBP7); settings: cited from earlier work
hPCSK9, sequence (Q8NBP7 153-692): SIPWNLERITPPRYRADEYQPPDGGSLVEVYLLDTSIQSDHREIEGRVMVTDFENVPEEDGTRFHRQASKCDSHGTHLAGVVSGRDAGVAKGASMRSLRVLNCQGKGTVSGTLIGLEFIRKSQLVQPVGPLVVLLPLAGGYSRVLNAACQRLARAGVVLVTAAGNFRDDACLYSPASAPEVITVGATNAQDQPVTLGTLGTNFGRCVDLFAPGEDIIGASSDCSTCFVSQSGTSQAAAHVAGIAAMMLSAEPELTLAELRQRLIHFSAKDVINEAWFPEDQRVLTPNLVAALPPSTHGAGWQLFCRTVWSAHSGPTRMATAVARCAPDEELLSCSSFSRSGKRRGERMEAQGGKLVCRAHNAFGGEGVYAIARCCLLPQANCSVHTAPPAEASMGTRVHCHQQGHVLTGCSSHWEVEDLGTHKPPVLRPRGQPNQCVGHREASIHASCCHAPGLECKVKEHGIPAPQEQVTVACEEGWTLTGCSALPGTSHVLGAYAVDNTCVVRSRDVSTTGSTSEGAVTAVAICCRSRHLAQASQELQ

[9] = test system: normolipidemic male Syrian hamsters; settings: Study 1, single s.c. 1, 3, or 10 mg/kg, data not shown
[10] = target: hPCSK9 D238 mutated (D238R) (Homo sapiens, UniProt Q8NBP7, D238R); settings: cited from earlier work
hPCSK9 D238 mutated (D238R), sequence (Q8NBP7 153-692 D238R): as the sequence (Q8NBP7 153-692) above, with D86R counted along it

[11] = Study 2, atorvastatin alone 10 or 20 mg/kg p.o. twice daily, after 7 days
[12] = Study 2, 316P single s.c. 10 mg/kg alone, sustained until Day 7
[13] = D238 mutated vs unmutated hPCSK9

CC(C)c1c(C(=O)Nc2ccccc2)c(-c2ccccc2)c(-c2ccc(F)cc2)n1CC[C@@H](O)C[C@@H](O)CC(=O)O [atorvastatin]
ALT levels ([1]; Study 2, atorvastatin 2×10 or 20 mg/kg): slight, clinically insignificant increase; also recorded: biologically relevant increase
reduction in TG levels ([2]; Study 2, atorvastatin 2×20 mg/kg, after 7 days of treatment): 23%
reduction of serum TG levels ([2]; Study 2, atorvastatin alone 10 mg/kg or 20 mg/kg p.o. twice daily, after 7 days): 23%
effect on serum HDL-C [2, 11]: no significant effect
effect on serum LDL-C [2, 11]: no significant effect
effect on serum TC [2, 11]: no significant effect

CC(C)c1nc(N(C)S(C)(=O)=O)nc(-c2ccc(F)cc2)c1/C=C/[C@@H](O)C[C@@H](O)CC(=O)O [rosuvastatin]
effect on the level of HNF1 alpha [3]: no appreciable effect
increase in LDLR mRNA and protein [3]: ≈ 2 fold
increase in PCSK9 mRNA and protein [3]: ≈ 3 fold
hepatic LDLR levels (dyslipidemic hamsters): reduced
serum LDL-C levels (dyslipidemic hamsters): slightly increased

316P: fully human monoclonal anti-PCSK9 antibody comprising HCVR SEQ ID NO: 9 and LCVR SEQ ID NO: 10 [Antibody 316P]
tolerability ([1]; Study 2): well tolerated
effect on PCSK9-mediated down-regulation of LDL uptake via LDLR [4]: antagonizes
serum 316P concentration vs dose [5]: proportional to theoretical dosing levels
effects on relative liver weight, hepatic cholesterol, TG or phospholipid concentration [6]: no clinically relevant effects
LDL-C reduction (humans): exceeded 60%
duration of LDL-C reduction (humans): 30 days
reduction in HDL-C ([7]; Study 1, data not shown): statistically significant but less pronounced than the effect on LDL-C
serum TG levels ([7]; Study 1, every dose throughout the study): remained relatively constant
decrease in TC ([7]; Study 1, single s.c. 1 mg/kg): 9%
maximal effect on LDL-C (reduction) ([7]; Study 1, single s.c. 1 mg/kg, after Day 1, vs PBS control): 17%
decrease in TC ([7]; Study 1, single s.c. 3 mg/kg): 17%
maximal effect on LDL-C (reduction) ([7]; Study 1, single s.c. 3 mg/kg, after Day 7, vs PBS control): 27%
decrease in TC ([7]; Study 1, single s.c. 10 mg/kg): 28%
maximal effect on LDL-C (reduction) ([7]; Study 1, single s.c. 10 mg/kg, after Day 7, vs PBS control): 59%
duration of dose-dependent decrease in LDL-C (TC and LDL-C) ([7]; Study 1, single s.c. 1, 3, or 10 mg/kg): more than 2 weeks
day on which LDL-C levels reach PBS control-treated levels (0% reduction) ([7]; Study 1, single s.c. injection): 28 days
HDL-C levels ([7]; highest dose 10 mg/kg, data not shown): significant reduction
level of hepatic LDLR expression compared with the PBS control groups [8]: 149%
level of hepatic LDLR protein versus PBS control [8]: 1.5 fold
binding affinity for PCSK9 (PCSK9): high binding affinity
binding affinity for PCSK9 (hPCSK9; in humans): high binding affinity
T1/2 (hPCSK9; unmutated hPCSK9): ~37 min
Kd (hPCSK9; unmutated hPCSK9, read-out: KD (binding affinity)): ~1 nM
effects on safety parameters, relative liver weight, hepatic cholesterol, TG, phospholipid concentration [9]: no biologically relevant effects
reduction in HDL-C ([2]; Study 2, 316P 10 mg/kg (groups not specified), data not shown): statistically significant but less pronounced than the effect on LDL-C
effect on serum LDL-C [2, 12]: potent effect
effect on serum TC [2, 12]: potent effect
decrease of T1/2 [10, 13]: > 30 fold
reduction in binding affinity [10, 13]: > 400 fold
T1/2 ([10]; D238 mutated): ~1 min
Kd ([10]; D238 mutated, read-out: KD (binding affinity)): ~410 nM
